Measurements published in patent US8969020B2, “Peptide sequence that promotes tumor invasion” (MetaMol Theranostics LLC, priority 2005, dated 2015).

Experiments:
Format in all cases: cell-based, human
MCF-7 cells [1] = assay: Soft agar colony formation by MCF-7 cells with synthetic peptide added; conditions: after ten days, peptide replenished with every addition of medium
Experimental: To assess effect on soft agar colony formation, 5×10^5 MCF-7 cells per 60-mm dish were plated in triplicates with a top layer of 0.3% agar (BACTO Agar, Difco, Detroit Mich.) and a bottom layer of 0.5% agar (both in a-MEM). Peptide SEQ ID NO: 37 was added at the indicated concentrations upon plating and was replenished with every addition of medium. Every other day, 0.4 ml of medium was supplemented. After ten days, photographs were taken at high and low magnification and the surface area of all clones in five fields was measured with the imaging software ImageJ (NIH) or Metamorph.
(§1) 5×10^5 MCF-7 cells per 60-mm dish were plated in triplicates with a top layer of 0.3% agar (BACTO Agar, Difco, Detroit, Mich.) and a bottom layer of 0.5% agar (both in α-MEM). Peptide was added at the indicated concentrations upon plating and was replenished with every addition of medium. For the investigation of cell growth rates, MCF-7 cells were plated at 5000 cells/well in 24-well plates in the presence or absence of peptide. Effects of a synthetic peptide on MDA-MB-435 cells are shown in FIG. 9C after 10 days in the presence or absence of synthetic peptides. hOPN Exon-5 peptide (NAVSSEETNDFKQE) SEQ ID NO: 34 and scrambled hOPN-c peptide (SSEEQETGVEKASSNS) SEQ ID NO: 33 served as non-specific controls.

MCF-7 cells [2] = assay: Cell growth rate of MCF-7 cells in 24-well plates with or without peptide; conditions: 5000 cells/well, daily cell counts
Experimental: Two control peptides (hOPN-c scrambled sequence SEQ ID NO: 33 and hOPN-exon5 SEQ ID NO: 34) had no effect (data not shown). […] For investigation of cell growth rates, MCF-7 cells were plated at 5000 cells/well in 24-well plates in the presence or absence of peptide. Daily, five wells per group were harvested by trypsinization and the cell numbers were determined in a Coulter™ Z-Series Counter.
as §1

MCF-7 cells [3] = assay: Adhesion of MCF-7 cells to coated wells; conditions: 2 hours at 37° C., 96-well plate coated overnight
Experimental: 96-well polystyrene plates were coated with the indicated amounts of GST-OPN forms or control fibronectin ([…]) in […] at 4° C. overnight. The wells were washed twice with cold PBS followed by blocking with 1% BSA for 1 h at 37° C. MCF-7 parental cells were used to assay adhesion. Cells were trypsinized and treated with soybean trypsin inhibitor, then washed twice with PBS and resuspended in adhesion buffer (0.1% BSA, 1 mM sodium pyruvate, 2 mM MgCl2). Cells (2×10^4 cell/well) were added to the above 96-well plates and allowed to adhere at 37° C. for two hours. Non-adherent cells were removed by rinsing twice with PBS. Adherent cells were counted and photographed. For adhesion to aggregated OPN, 1 μg of GST or GST-OPN forms were added to 96-well plated in aggregation buffer (0.2 M NaCl, 0.05 M Tris-HCl, pH 7.6, 5 mM CaCl2 final concentration) and incubated at 4° C. overnight. All adhesion assays were performed with triplicate wells and were repeated at least three times.
Stably transfected cells were plated at 5000 cells/well (24-well plate) on day 0. On every consecutive day, five wells per cell line were harvested and the total number of cells was counted. […] Aggregation was assessed after 16 hours at increasing calcium concentrations. Consecutively denaturing, non-reducing SDS-PAGE and Western blotting for OPN was performed. […]

Ac-SGSSEEKQNAVSSEET-NH2 [SEQ ID NO: 37]
size of the clones formed in soft agar (MCF-7 cells [1]): increasing the size of the clones formed in soft agar | cell growth (MCF-7 cells [2]): no effect on cell growth

NAVSSEETNDFKQE (Control peptide derived from Exon 5) [SEQ ID NO: 34, hOPN Exon-5 peptide, non-specific control, reference compound]
size of the clones formed in soft agar (MCF-7 cells [1]): no effect

SGSSEEKQNAVSSEET (Peptide representing a domain encompassing the splice junction of Exon 3 and 5) [SEQ ID NO: 8, OPNc peptide, domain around the splice junction of OPN variant-c]
size of the clones formed in soft agar (MCF-7 cells [1]): enhanced soft agar clone formation | cell growth (MCF-7 cells [2]): did not support the growth of cells in plastic dishes

SSEEQETGVEKASSNS (Control peptide for OPNcPEP) [SEQ ID NO: 33, scrambled hOPN-c peptide, non-specific control, reference compound]
size of the clones formed in soft agar (MCF-7 cells [1]): no effect

fibronectin
cell spreading of adhered cells on coated plastic (MCF-7 cells [3]): cell spreading
